Experiments:
[1] = tested on: Mus musculus; assay: Reversal of haloperidol-induced catalepsy in C57BL6 mouse model of Parkinson's disease assessed as reduction in catalepsy intensity index at 30 mg/kg, ip dosed along with haloperidol and measured after 120 mins relative to untreated control; assay type: functional; parameters: scale not given: the % may be the effect or the level left
[2] = tested on: Mus musculus; assay: Reversal of haloperidol-induced catalepsy in C57BL6 mouse model of Parkinson's disease assessed as reduction in catalepsy intensity index at 30 mg/kg, ip dosed along with haloperidol and measured after 30 mins relative to untreated control; assay type: functional; parameters: scale not given: the % may be the effect or the level left
[3] = molecular target: G-protein coupled receptor 6 (Homo sapiens, UniProt P46095); assay: Modulation activity at GPR6 receptor (unknown origin) expressed in CHO-K1 cells assessed as inhibition of constitutive cAMP activity incubated for 45 mins by Perkin Elmer Lance HTRF Ultrac-AMP assay; assay type: functional, cell-based
[4] = tested on: Mus musculus; assay: Reversal of haloperidol-induced catalepsy in C57BL6 mouse model of Parkinson's disease assessed as reduction in catalepsy intensity index at 10 mg/kg, sc dosed along with haloperidol and measured after 120 mins relative to untreated control; assay type: functional; parameters: scale not given: the % may be the effect or the level left
[5] = tested on: Rattus norvegicus; assay: Reversal of haloperidol-induced catalepsy in Sprague-Dawley rat model of Parkinson's disease assessed as reduction in catalepsy intensity index at 10 mg/kg, sc dosed along with haloperidol and measured after 30 mins relative to untreated control; assay type: functional; parameters: scale not given: the % may be the effect or the level left
[6] = tested on: Mus musculus; assay: Reversal of haloperidol-induced catalepsy in C57BL6 mouse model of Parkinson's disease assessed as reduction in catalepsy intensity index at 10 mg/kg, ip dosed along with haloperidol and measured after 30 mins relative to untreated control; assay type: functional; parameters: scale not given: the % may be the effect or the level left
[7] = tested on: Mus musculus; assay: Reversal of haloperidol-induced catalepsy in C57BL6 mouse model of Parkinson's disease assessed as reduction in catalepsy intensity index at 10 mg/kg, ip dosed along with haloperidol and measured after 120 mins relative to untreated control; assay type: functional; parameters: scale not given: the % may be the effect or the level left

Chain of G-protein coupled receptor 6 (P46095 whole entry): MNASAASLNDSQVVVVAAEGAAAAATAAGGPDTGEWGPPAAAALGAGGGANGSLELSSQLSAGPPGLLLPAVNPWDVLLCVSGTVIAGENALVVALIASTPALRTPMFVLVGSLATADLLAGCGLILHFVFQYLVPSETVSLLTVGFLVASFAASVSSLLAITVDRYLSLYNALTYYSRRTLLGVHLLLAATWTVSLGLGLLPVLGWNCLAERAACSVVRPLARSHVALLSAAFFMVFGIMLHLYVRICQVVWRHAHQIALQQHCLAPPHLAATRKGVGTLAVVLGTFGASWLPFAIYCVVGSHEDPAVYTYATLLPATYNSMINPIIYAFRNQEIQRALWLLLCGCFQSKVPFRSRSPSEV

IC50 [3] | Structure (SMILES) | other results
– | Clc1cccc(CN2CCN(c3nc4ccccc4nc3Nc3cccnc3)CC2)c1.O=C(O)C(F)(F)F | Activity [1]: 15.4%; Activity [2]: 13.6%
82 nM | CC(C)Nc1nc2ccc(C#N)cc2nc1N1CCC([C@H](F)c2cc(F)ccc2F)CC1 | –
21 nM | COc1ccc(C(=O)C2CCN(c3nc4cnccc4nc3NC3CC3)CC2)c(F)c1 | –
– | Clc1ccc(Cl)c(CN2CCN(c3nc4ccccc4nc3NC3CC3)CC2)c1.O=C(O)C(F)(F)F | Activity [1]: 41.4%; Activity [2]: 48.1%
54 nM | CN1CCN(C(=O)c2cc3nc(NC4CC4)c(N4CCC(C(=O)c5cc(C#N)ccc5F)CC4)nc3cn2)CC1 | –
36 nM | COc1ccc(OC2CCN(c3nc4cnncc4nc3NC3CC3)CC2)c(F)c1 | –
310 nM | CC(C)Nc1nc2ccc(C#N)cc2nc1N1CCN(Cc2cc(Cl)ccc2Cl)CC1 | –
717 nM | COc1ccc(C(=O)C2CCN(c3nc4c(N5CCOCC5)nccc4nc3NC3CC3)CC2)c(F)c1 | –
1100 nM | Fc1ccc(OC2CCN(c3nc4cnccc4nc3NC3CC3)CC2)c(F)c1 | –
145 nM | CC1CC1Nc1nc2cnncc2nc1N1CCC([C@@H](F)c2ccc(F)cc2F)CC1 (stereo partly specified) | –
43 nM | COc1ccc(C(=O)C2CCN(c3nc4c(C#N)nccc4nc3NC3CC3)CC2)c(F)c1 | –
114 nM | COc1ccc(OC2CCN(c3nc4c(N5CCOCC5)nccc4nc3NC3CC3)CC2)c(F)c1 | –
– | N#Cc1ccc2nc(NC3CC3)c(N3CCC(Cc4ccc(F)cc4F)CC3)nc2c1.O=C(O)C(F)(F)F | Activity [4]: 25.1%; Activity [5]: 36.9%
840 to 24600 nM | Cc1cccc(CN2CCN(c3nc4ncccc4nc3NC3CC3)CC2)c1 | –
51 nM | CC(C)Nc1nc2ccccc2nc1N1CCC(Oc2ccc(Cl)cc2F)CC1 | –
60 nM | Cc1nnc(C)c2nc(N3CCC(Oc4ccc(F)cc4F)CC3)c(NC(C)C)nc12 | –
62 nM | Fc1ccc(F)c(CN2CCN(c3nc4cncc(Cl)c4nc3NC3CC3)CC2)c1 | –
– | N#Cc1ccc2nc(NC3CC3)c(N3CCN(Cc4cc(Cl)ccc4Cl)CC3)nc2c1 | Activity [6]: 42%; Activity [7]: 18.8%; Activity [1]: 15.7%; Activity [2]: 27.4%
10100 to 17700 nM | COc1ccc(C(=O)N2CCN(c3nc4ccccc4nc3NC3CC3)CC2)cc1Cl | –
19 nM | Fc1ccc(CC2CCN(c3nc4cnccc4nc3NC3CC3)CC2)c(F)c1 | –
21 nM | Fc1ccc(CN2CCN(c3nc4cnccc4nc3NC3CC3)CC2)c(F)c1 | –
– | Clc1cccc(Cl)c1CN1CCN(c2nc3ccccc3nc2NC2CC2)CC1.O=C(O)C(F)(F)F | Activity [1]: 29.6%; Activity [2]: 40.4%
1570 nM | C[C@H](CO)Nc1nc2ccccc2nc1N1CCN(Cc2cc(Cl)ccc2Cl)CC1 | –

Structure (SMILES) | IC50 [3] | other results
Cc1nncc2nc(N3CCC(Oc4ccc(F)cc4F)CC3)c(NC(C)C)nc12 | 31 nM | –
